Assay results reported in ChEMBL document CHEMBL4507279, “Data for DCP probe BI-9627” (2021).

What was measured:
[1] = target: Serine/threonine-protein kinase D2 (Homo sapiens) (UniProt Q9BZL6); conditions: Compound concentration 1000.0 nM
[2] = target: Dual specificity protein kinase CLK4 (Homo sapiens) (UniProt Q9HAZ1); conditions: Compound concentration 1000.0 nM
[3] = target: Serine/threonine-protein kinase DCLK3 (Homo sapiens) (UniProt Q9C098); conditions: Compound concentration 1000.0 nM
[4] = target: Testis-specific serine/threonine-protein kinase 3 (Homo sapiens) (UniProt Q96PN8); conditions: Compound concentration 1000.0 nM
[5] = target: Mitogen-activated protein kinase 12 (Homo sapiens) (UniProt P53778); conditions: Compound concentration 1000.0 nM
[6] = target: Serine/threonine-protein kinase PAK 6 (Homo sapiens) (UniProt Q9NQU5); conditions: Compound concentration 1000.0 nM
[7] = target: Mitogen-activated protein kinase 1 (Homo sapiens) (UniProt P28482); conditions: Compound concentration 1000.0 nM
[8] = target: Sodium-dependent dopamine transporter (Homo sapiens, UniProt Q01959); assay: GPCRScan assay: inhibition of DAT; set-up: radioligand conc. used [nm] 3.6 – 16.0, parental cells stable HEK
[9] = target: Fibroblast growth factor receptor 2 (Homo sapiens) (UniProt P21802); conditions: Compound concentration 1000.0 nM
[10] = target: Protein kinase C theta type (Homo sapiens) (UniProt Q04759); conditions: Compound concentration 1000.0 nM
[11] = target: Serine/threonine-protein kinase 36 (Homo sapiens) (UniProt Q9NRP7); conditions: Compound concentration 1000.0 nM
[12] = target: Rho-associated protein kinase 2 (Homo sapiens) (UniProt O75116); conditions: Compound concentration 1000.0 nM
[13] = target: Ephrin type-A receptor 5 (Homo sapiens) (UniProt P54756); conditions: Compound concentration 1000.0 nM
[14] = target: Serine/threonine-protein kinase PknB (Mycobacterium tuberculosis) (UniProt P9WI81); conditions: Compound concentration 1000.0 nM
[15] = target: Cyclin-dependent kinase 2 (Homo sapiens) (UniProt P24941); conditions: Compound concentration 1000.0 nM
[16] = target: Platelet-derived growth factor receptor alpha (Homo sapiens) (UniProt P16234); conditions: Compound concentration 1000.0 nM
[17] = target: Calcium/calmodulin-dependent protein kinase kinase 2 (Homo sapiens) (UniProt Q96RR4); conditions: Compound concentration 1000.0 nM
[18] = target: Aurora kinase C (Homo sapiens) (UniProt Q9UQB9); conditions: Compound concentration 1000.0 nM
[19] = target: Homeodomain-interacting protein kinase 2 (Homo sapiens) (UniProt Q9H2X6); conditions: Compound concentration 1000.0 nM
[20] = target: Mitogen-activated protein kinase kinase kinase 2 (Homo sapiens) (UniProt Q9Y2U5); conditions: Compound concentration 1000.0 nM
[21] = test system: Tyrosine-protein kinase ABL1 (Homo sapiens), P00519 [Q252H]; conditions: Compound concentration 1000.0 nM
[22] = target: Phosphatidylinositol 4,5-bisphosphate 3-kinase catalytic subunit delta isoform (Homo sapiens) (UniProt O00329); conditions: Compound concentration 1000.0 nM
[23] = target: Serine/threonine-protein kinase MRCK gamma (Homo sapiens) (UniProt Q6DT37); conditions: Compound concentration 1000.0 nM
[24] = target: Activin receptor type-2B (Homo sapiens) (UniProt Q13705); conditions: Compound concentration 1000.0 nM
[25] = target: Phosphatidylinositol 5-phosphate 4-kinase type-2 beta (Homo sapiens) (UniProt P78356); conditions: Compound concentration 1000.0 nM
[26] = target: NUAK family SNF1-like kinase 2 (Homo sapiens) (UniProt Q9H093); conditions: Compound concentration 1000.0 nM
[27] = test system: Serine/threonine-protein kinase B-raf (Homo sapiens), P15056 [V600E]; conditions: Compound concentration 1000.0 nM
[28] = target: 3-phosphoinositide-dependent protein kinase 1 (Homo sapiens) (UniProt O15530); conditions: Compound concentration 1000.0 nM
[29] = target: Serine/threonine-protein kinase 25 (Homo sapiens) (UniProt O00506); conditions: Compound concentration 1000.0 nM
[30] = target: Serine/threonine-protein kinase 17A (Homo sapiens) (UniProt Q9UEE5); conditions: Compound concentration 1000.0 nM
[31] = target: Mitogen-activated protein kinase kinase kinase 20 (Homo sapiens) (UniProt Q9NYL2); conditions: Compound concentration 1000.0 nM
[32] = target: SRSF protein kinase 2 (Homo sapiens) (UniProt P78362); conditions: Compound concentration 1000.0 nM
[33] = target: cAMP-dependent protein kinase catalytic subunit PRKX (Homo sapiens) (UniProt P51817); conditions: Compound concentration 1000.0 nM
[34] = target: Serine/threonine-protein kinase ULK2 (Homo sapiens) (UniProt Q8IYT8); conditions: Compound concentration 1000.0 nM
[35] = target: Serine/threonine-protein kinase PRP4 homolog (Homo sapiens) (UniProt Q13523); conditions: Compound concentration 1000.0 nM
[36] = target: Serine/threonine-protein kinase Nek11 (Homo sapiens) (UniProt Q8NG66); conditions: Compound concentration 1000.0 nM
[37] = target: Mitogen-activated protein kinase kinase kinase 9 (Homo sapiens) (UniProt P80192); conditions: Compound concentration 1000.0 nM
[38] = test system: Tyrosine-protein kinase ABL1 (Homo sapiens), P00519 [Y253F]; conditions: Compound concentration 1000.0 nM
[39] = target: LIM domain kinase 1 (Homo sapiens) (UniProt P53667); conditions: Compound concentration 1000.0 nM
[40] = target: Dual specificity tyrosine-phosphorylation-regulated kinase 1A (Homo sapiens) (UniProt Q13627); conditions: Compound concentration 1000.0 nM
[41] = target: Mitogen-activated protein kinase 6 (Homo sapiens) (UniProt Q16659); conditions: Compound concentration 1000.0 nM
[42] = target: Histamine H1 receptor (Homo sapiens) (UniProt P35367); conditions: Compound concentration 10.0 uM
[43] = target: Aurora kinase B (Homo sapiens) (UniProt Q96GD4); conditions: Compound concentration 1000.0 nM
[44] = target: Phosphorylase b kinase gamma catalytic chain, skeletal muscle/heart isoform (Homo sapiens) (UniProt Q16816); conditions: Compound concentration 1000.0 nM
[45] = target: Tyrosine-protein kinase Fyn (Homo sapiens) (UniProt P06241); conditions: Compound concentration 1000.0 nM

Chain of Sodium-dependent dopamine transporter (Q01959 whole entry): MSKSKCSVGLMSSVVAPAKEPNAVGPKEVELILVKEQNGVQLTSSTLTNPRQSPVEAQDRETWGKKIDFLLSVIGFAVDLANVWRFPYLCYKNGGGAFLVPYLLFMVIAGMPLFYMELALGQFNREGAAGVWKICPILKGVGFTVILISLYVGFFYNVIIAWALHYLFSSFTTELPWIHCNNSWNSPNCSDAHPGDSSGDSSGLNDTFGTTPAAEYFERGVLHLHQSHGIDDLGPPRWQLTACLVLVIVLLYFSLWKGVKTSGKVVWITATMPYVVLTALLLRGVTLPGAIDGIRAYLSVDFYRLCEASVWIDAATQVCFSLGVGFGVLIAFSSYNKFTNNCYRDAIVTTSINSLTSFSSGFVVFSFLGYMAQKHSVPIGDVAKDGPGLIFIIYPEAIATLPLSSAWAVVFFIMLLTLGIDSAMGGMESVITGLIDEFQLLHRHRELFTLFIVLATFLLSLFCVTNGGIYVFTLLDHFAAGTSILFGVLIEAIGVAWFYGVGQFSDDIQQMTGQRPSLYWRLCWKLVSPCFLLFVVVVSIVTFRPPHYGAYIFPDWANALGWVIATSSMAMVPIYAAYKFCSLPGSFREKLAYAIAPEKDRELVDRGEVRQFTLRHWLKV
Chain of Serine/threonine-protein kinase ULK2 (Homo sapiens) (Q8IYT8 whole entry): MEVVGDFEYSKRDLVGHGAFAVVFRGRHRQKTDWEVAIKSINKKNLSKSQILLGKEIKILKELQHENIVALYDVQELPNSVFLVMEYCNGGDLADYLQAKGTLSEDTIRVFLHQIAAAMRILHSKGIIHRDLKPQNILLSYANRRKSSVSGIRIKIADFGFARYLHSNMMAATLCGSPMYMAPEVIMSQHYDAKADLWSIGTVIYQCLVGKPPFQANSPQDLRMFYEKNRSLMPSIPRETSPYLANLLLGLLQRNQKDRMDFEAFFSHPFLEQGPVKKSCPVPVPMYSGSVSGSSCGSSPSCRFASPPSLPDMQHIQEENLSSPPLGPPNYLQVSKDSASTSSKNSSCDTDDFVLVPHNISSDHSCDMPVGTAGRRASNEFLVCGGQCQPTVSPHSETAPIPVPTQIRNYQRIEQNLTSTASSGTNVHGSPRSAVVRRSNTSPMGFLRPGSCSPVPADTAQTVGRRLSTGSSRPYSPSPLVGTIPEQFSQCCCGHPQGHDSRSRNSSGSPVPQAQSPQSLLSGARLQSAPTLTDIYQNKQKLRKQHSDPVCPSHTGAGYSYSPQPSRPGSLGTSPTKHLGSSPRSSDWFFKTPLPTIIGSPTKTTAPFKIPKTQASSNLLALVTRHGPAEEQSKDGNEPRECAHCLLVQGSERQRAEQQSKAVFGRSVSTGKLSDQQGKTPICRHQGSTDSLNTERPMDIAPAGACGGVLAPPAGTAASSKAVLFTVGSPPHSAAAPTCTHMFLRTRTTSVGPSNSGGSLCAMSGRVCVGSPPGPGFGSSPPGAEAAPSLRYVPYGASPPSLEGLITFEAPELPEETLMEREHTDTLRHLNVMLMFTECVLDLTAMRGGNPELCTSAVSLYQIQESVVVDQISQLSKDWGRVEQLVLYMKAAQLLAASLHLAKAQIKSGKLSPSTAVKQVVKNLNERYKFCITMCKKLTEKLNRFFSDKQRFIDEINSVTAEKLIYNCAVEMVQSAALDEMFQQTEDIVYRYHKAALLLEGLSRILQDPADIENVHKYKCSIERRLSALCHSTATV
Chain of Calcium/calmodulin-dependent protein kinase kinase 2 (Homo sapiens) (Q96RR4 2-588 limits assumed): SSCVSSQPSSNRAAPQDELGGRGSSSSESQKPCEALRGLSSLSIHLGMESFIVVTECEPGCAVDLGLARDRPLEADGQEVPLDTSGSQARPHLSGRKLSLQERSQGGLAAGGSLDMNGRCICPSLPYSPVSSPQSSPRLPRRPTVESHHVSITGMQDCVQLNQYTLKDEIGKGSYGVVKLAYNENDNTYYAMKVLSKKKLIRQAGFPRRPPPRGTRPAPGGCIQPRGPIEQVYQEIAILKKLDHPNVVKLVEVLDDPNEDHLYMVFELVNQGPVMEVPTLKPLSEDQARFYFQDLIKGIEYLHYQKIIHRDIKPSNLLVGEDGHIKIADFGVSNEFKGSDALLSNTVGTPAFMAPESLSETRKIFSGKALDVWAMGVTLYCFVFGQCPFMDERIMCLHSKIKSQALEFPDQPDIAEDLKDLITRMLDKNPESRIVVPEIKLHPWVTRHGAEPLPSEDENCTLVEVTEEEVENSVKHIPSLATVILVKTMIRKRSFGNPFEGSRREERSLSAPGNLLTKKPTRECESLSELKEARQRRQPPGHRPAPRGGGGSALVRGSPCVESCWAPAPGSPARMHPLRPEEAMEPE
Chain of Platelet-derived growth factor receptor alpha (Homo sapiens) (P16234 whole entry): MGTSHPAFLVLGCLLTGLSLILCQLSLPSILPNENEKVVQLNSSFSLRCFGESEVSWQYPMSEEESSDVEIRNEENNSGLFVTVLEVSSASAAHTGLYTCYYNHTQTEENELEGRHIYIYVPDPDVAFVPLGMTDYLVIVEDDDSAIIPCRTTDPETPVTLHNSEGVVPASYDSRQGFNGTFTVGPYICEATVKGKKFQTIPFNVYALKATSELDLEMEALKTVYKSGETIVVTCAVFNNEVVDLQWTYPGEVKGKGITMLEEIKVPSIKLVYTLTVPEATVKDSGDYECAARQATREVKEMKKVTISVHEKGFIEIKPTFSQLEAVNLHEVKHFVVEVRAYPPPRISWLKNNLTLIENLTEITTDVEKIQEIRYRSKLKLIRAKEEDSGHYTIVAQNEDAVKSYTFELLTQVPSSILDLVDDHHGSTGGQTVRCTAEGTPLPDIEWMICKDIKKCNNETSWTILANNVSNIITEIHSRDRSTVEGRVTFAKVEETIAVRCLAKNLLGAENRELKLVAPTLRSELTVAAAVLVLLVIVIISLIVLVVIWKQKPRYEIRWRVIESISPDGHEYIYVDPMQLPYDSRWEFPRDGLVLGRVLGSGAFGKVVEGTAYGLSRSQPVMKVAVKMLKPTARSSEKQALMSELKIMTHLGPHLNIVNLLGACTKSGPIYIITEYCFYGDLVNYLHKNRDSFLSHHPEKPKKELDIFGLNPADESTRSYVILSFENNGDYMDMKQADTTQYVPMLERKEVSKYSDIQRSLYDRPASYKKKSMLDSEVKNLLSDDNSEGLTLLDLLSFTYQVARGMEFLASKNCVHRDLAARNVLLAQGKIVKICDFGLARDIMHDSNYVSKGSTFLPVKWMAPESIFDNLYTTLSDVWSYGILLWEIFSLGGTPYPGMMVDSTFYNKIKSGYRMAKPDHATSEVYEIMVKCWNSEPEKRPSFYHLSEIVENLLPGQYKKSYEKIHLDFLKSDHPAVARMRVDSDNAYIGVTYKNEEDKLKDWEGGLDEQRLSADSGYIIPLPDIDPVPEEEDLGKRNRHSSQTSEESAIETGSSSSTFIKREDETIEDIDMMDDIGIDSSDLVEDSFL
Chain of Homeodomain-interacting protein kinase 2 (Homo sapiens) (Q9H2X6 whole entry, looked up): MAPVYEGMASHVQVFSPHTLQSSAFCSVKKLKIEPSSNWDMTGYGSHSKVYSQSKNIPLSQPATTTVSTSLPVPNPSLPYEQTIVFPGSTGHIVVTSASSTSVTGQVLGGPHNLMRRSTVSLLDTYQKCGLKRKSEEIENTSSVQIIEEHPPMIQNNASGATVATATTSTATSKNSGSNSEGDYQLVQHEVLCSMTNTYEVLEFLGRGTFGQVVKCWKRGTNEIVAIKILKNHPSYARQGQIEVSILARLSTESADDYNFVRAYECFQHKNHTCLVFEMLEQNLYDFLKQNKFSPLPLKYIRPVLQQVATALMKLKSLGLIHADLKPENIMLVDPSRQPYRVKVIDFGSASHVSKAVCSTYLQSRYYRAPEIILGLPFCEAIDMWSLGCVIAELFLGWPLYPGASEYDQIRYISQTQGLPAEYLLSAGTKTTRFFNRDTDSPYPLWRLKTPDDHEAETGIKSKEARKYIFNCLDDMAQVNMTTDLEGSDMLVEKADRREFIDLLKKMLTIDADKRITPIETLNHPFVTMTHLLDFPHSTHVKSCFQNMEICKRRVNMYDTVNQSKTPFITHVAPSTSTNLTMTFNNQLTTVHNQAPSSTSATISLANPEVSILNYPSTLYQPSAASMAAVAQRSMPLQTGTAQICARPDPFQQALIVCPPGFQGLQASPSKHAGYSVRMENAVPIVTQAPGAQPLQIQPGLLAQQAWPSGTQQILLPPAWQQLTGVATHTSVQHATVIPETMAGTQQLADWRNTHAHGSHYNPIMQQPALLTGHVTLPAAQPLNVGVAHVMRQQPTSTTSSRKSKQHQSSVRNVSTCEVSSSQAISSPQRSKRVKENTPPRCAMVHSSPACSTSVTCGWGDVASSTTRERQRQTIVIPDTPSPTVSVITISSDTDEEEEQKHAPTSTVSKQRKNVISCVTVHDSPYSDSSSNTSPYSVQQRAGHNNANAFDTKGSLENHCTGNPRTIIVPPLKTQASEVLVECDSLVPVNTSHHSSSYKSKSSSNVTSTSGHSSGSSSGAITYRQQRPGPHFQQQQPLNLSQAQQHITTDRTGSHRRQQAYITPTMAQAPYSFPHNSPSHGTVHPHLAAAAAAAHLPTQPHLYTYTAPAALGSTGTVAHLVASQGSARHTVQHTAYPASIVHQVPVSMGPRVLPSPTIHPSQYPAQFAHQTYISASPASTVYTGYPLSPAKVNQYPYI
Chain of cAMP-dependent protein kinase catalytic subunit PRKX (Homo sapiens) (P51817 whole entry): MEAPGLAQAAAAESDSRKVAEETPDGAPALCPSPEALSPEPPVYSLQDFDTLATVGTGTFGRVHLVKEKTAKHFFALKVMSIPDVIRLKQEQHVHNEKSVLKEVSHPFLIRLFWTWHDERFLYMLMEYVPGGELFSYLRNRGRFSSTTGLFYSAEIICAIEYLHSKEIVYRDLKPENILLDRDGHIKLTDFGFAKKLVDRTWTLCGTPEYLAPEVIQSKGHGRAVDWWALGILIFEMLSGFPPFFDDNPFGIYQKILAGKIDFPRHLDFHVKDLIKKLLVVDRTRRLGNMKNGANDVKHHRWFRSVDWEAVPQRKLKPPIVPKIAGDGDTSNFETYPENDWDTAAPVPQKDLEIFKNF

For CC(=O)N1CCC(c2ccc(C(=O)NC3=NCCN3)cc2C(F)(F)F)CC1 [BI 0054], the residual activity [1] was 100%, the residual activity [2] was 100% and the residual activity [3] was 100%. The residual activity [4] was 100%, the residual activity [5] was 55% and the residual activity [6] was 100%. The residual activity [7] was 100%, the Ki ([8]; read-out: Ki) was 825 nM and the Ki ([8]; read-out: pKi (converted)) was 794 nM. It also gave a residual activity [9] of 86%, a residual activity [10] of 93% and a residual activity [11] of 83%. For the same compound, the residual activity [12] was 73%, the residual activity [13] was 100% and the residual activity [14] was 100%. It also gave a residual activity [15] of 100%, a residual activity [16] of 92% and a residual activity [17] of 100%. It also gave a residual activity [18] of 100%, a residual activity [19] of 100% and a residual activity [20] of 100%. For the same compound, the residual activity [21] was 86%, the residual activity [22] was 100% and the residual activity [23] was 93%. It also gave a residual activity [24] of 100%, a residual activity [25] of 75% and a residual activity [26] of 90%. For the same compound, the residual activity [27] was 100%, the residual activity [28] was 94% and the residual activity [29] was 100%. For the same compound, the residual activity [30] was 100%, the residual activity [31] was 88% and the residual activity [32] was 100%. For the same compound, the residual activity [33] was 100%, the residual activity [34] was 82% and the residual activity [35] was 100%. The residual activity [36] was 100%, the residual activity [37] was 100% and the residual activity [38] was 90%. It also gave a residual activity [39] of 100%, a residual activity [40] of 74% and a residual activity [41] of 100%. The inhibition [42] was -0.162%, the residual activity [43] was 100% and the residual activity [44] was 100%. The residual activity [45] was 76%.
For CC(=O)N1CCC(c2ccc(C(=O)NC(=N)N)cc2C(F)(F)F)CC1 [BI 9627], the residual activity [1] was 100%, the residual activity [2] was 100% and the residual activity [3] was 98%. The residual activity [4] was 100%, the residual activity [5] was 77% and the residual activity [6] was 100%. It also gave a residual activity [7] of 96%, a Ki ([8]; read-out: Ki) of 1520 nM and a Ki ([8]; read-out: pKi (converted)) of 1580 nM. The residual activity [9] was 100%, the residual activity [10] was 91% and the residual activity [11] was 100%. The residual activity [12] was 100%, the residual activity [13] was 99% and the residual activity [14] was 100%. The residual activity [15] was 100%, the residual activity [16] was 100% and the residual activity [17] was 100%. It also gave a residual activity [18] of 100%, a residual activity [19] of 100% and a residual activity [20] of 100%. For the same compound, the residual activity [21] was 100%, the residual activity [22] was 34% and the residual activity [23] was 92%. For the same compound, the residual activity [24] was 100%, the residual activity [25] was 77% and the residual activity [26] was 100%. For the same compound, the residual activity [27] was 100%, the residual activity [28] was 100% and the residual activity [29] was 100%. For the same compound, the residual activity [30] was 100%, the residual activity [31] was 100% and the residual activity [32] was 0%. It also gave a residual activity [33] of 100%, a residual activity [34] of 100% and a residual activity [35] of 78%. The residual activity [36] was 100%, the residual activity [37] was 100% and the residual activity [38] was 92%. The residual activity [39] was 100%, the residual activity [40] was 74% and the residual activity [41] was 100%. It also gave an inhibition [42] of 7.6%, a residual activity [43] of 100% and a residual activity [44] of 100%. The residual activity [45] was 100%.
